Results as given in EP0185020B1, “NI[…] PREPARATION THEREOF AND UTILIZATION THEREOF IN ANTICANCEROUS CHEMIOTHERAPY” (CENTRE NATIONAL DE LA RECHERCHE SCIENTIFIQUE (CNRS), priority 1984, dated 1985).

Columns and labels:
[1] = system: leucémie L 1210 greffée i.p.; experiment: Antitumour activity on L1210 leukaemia grafted i.p. in mice, mixtures A1 A2 and B1 B2 (INSERM Unit 71, Example 12); type: in vivo, souris B6D2F1/IFFA CREDO; conditions: J1, J5, J9
From the text: Au jour J: 0, des souris mâles B6D2F1 âgées de trois mois reçoivent par voie intrapéritonéale 10^5 cellules de la souche leucémique L 1210. Les animaux sont répartis en lots de 8 à 10 animaux pour les groupes témoins et de 6 à 8 animaux pour les groupes traités. Aux jours J : 1, J : 5, J : 9, les animaux reçoivent par voie intrapéritonéale ou intraveineuse le traitement à différentes doses. La CNCC est administrée en suspension dans l'huile d'olive. Les produits selon l'invention sont administrés dans du sérum physiologique. La mortalité est enregistrée tous les jours. La médiane de survie des animaux traités et des animaux témoins a été déterminée. Les résultats sont considérés comme positifs lorsque l'index I = [formula] est supérieur à 125.
La valeur ∞ signifie que 50 à 100% des animaux sont survivants au jour J : 90.
L'activité cytostatique sur la leucémie L 1210 des produits selon l'invention a été évaluée chez des souris B6D2F1/IFFA CREDO d'après le protocole précédemment décrit.
Ont été administrés par voie intrapéritonéale (i.p.) soit le mélange A, A2 dans les proportions suivantes A, (70%) et A2 (30%), soit le mélange B, B2 dans les mêmes proportions, soit la CNCC aux doses suivantes: 10 mg/kg, 20 mg/kg, 30 mg/kg, 40 mg/kg et 50 mg/kg. Les résultats sont présentés sur le tableau Il et appellent les commentaires suivants: • - très bonne efficacité du mélange A, A2 aux doses de 20 mg/kg, 30 mg/kg et 40 mg/kg et du mélange B, B2 aux doses de 20 mg/kg, 30 mg/kg, 40 mg/kg et 50 mg/kg. […] De plus, le nombre de survivants à 90 jours est plus grand chez les animaux ayant reçu les produits selon l'invention par rapport aux animaux ayant reçu la CNCC. […]

[2] = Solubility in solvents allowing intravenous administration; type: physicochemical; conditions: solvants autorisant l'administration par voie intraveineuse
From the text: Ont été administrés par voie intraveineuse (i.v.) dans la veine caudale, les mélanges A, A2 et B, B2 dans les proportions et aux doses utilisées dans a). La comparaison avec la CNCC pour cette voie d'administration est impossible en raison de l'insolubilité de ce composé dans les solvants autorisant l'administration par voie intraveineuse. Les résultats sont présentés sur le tableau III.

[3] = system: Leucémie L 1210 (greffée par voie i.c.); conditions: Leucémie L 1210 i.c.; 30 mg/kg I.P., jours 1,5,9; cited from earlier work
[4] = system: Carcinome pulmonaire de Lewis (implanté en sous-cutané); conditions: 30 mg/kg I.P., jours 1,5,9; cited from earlier work
[5] = system: Mélano-carcinome B 16 (implanté en sous-cutané); conditions: Mélano-carcinome B 16 s.c.; 30 mg/kg I.P., jours 1,5,9; cited from earlier work
[6] = system: Gliome 26 (implanté en sous-cutané); conditions: Gliome 26 s.c.; 30 mg/kg I.P., jours 1,5,9; cited from earlier work
[7] = system: Adénocarcinome mammaire TM2 (implanté en sous-cutané); conditions: 30 mg/kg I.P., jours 1,5,9; cited from earlier work
[8] = system: Fibrosarcome I.C.I.G. C1 (implanté en sous-cutané); design: key: N.S.: Non significatif; ∞: 50% en plus des animaux traités sont guéris; conditions: 30 mg/kg I.P., jours 1,5,9; cited from earlier work
[9] = system: Carcinome du côlon (côlon 26) (implanté en sous-cutané); conditions: Carcinome du côlon (côlon 26) s.c.; 30 mg/kg I.P., jours 1,5,9; cited from earlier work
[10] = system: M 555 ovarienne (implanté en sous-cutané); conditions: M 555 ovarienne s.c.; 30 mg/kg I.P., jours 1,5,9; cited from earlier work

O=NN(CCCl)C(=O)NCCSSCCNC(=O)N(CCCl)N=O [CNCC]
Nombre de survivants à 90 jours ([1]; 10 mg/kg): 0/6 | T/C × 100 ([1]; 10 mg/kg): 250 | Nombre de survivants à 90 jours ([1]; 20 mg/kg): 6/6 | T/C × 100 ([1]; 20 mg/kg): ∞ (50 à 100% des animaux survivants à 90 jours) | Nombre de survivants à 90 jours ([1]; 30 mg/kg): 6/6 | T/C × 100 ([1]; 30 mg/kg): ∞ (50 à 100% des animaux survivants à 90 jours) | Nombre de survivants à 90 jours ([1]; 40 mg/kg): 3/6 | T/C × 100 ([1]; 40 mg/kg): ∞ (50 à 100% des animaux survivants à 90 jours) | Nombre de survivants à 90 jours ([1]; 50 mg/kg): 0/6 | T/C × 100 ([1]; 50 mg/kg): 125 | solubilité, in words [2]: insolubilité | Augmentation de la durée de survie (I.L.S.: T/C×100) [3]: ∞ (50% en plus des animaux traités sont guéris) | Augmentation de la durée de survie (I.L.S.: T/C×100) [4]: ∞ (50% en plus des animaux traités sont guéris) | Augmentation de la durée de survie (I.L.S.: T/C×100) [5]: 200 | Augmentation de la durée de survie (I.L.S.: T/C×100) [6]: 200 | Augmentation de la durée de survie (I.L.S.: T/C×100) [7]: 185 | Augmentation de la durée de survie (I.L.S.: T/C×100) [8]: N.S. | Augmentation de la durée de survie (I.L.S.: T/C×100) [9]: ∞ (50% en plus des animaux traités sont guéris) | Augmentation de la durée de survie (I.L.S.: T/C×100) [10]: >254
